In article PMC13586308, “Cell type–selective targeting by heterobifunctional protein binders via in-cell enrichment” (Nature Communications, 2026):
Where two headings read alike, the source gives them in different places.

Key:
BRD2BD2 = BRD2BD2 (Homo sapiens, UniProt P25440); assay: competitive FP assay, BRD2 BD2 -/+ FKBP12; assay type: binding
BRD3BD1 = target: T1, BRD3BD1 (Homo sapiens, UniProt Q15059); assay: competitive FP assay, BRD3 BD1 -/+ FKBP12; assay type: binding
T1 construct: to the isolated BD1 and BD2 domains of BRD2, BRD3 and BRD4

BRD3BD2 = target: T2, BRD3BD2 (Homo sapiens, UniProt Q15059); assay: competitive FP assay, BRD3 BD2 -/+ FKBP12; assay type: binding
T2 construct: to the isolated BD1 and BD2 domains of BRD2, BRD3 and BRD4

BRD4 43-463 Y390A [1] = assay: competitive FP assay, BRD4 tandem construct Y390A; assay type: binding
BRD2BD1 = target: T3, BRD2BD1 (Homo sapiens, UniProt P25440); assay: competitive FP assay, BRD2 BD1 -/+ FKBP12; assay type: binding
T3 construct: to the isolated BD1 and BD2 domains of BRD2, BRD3 and BRD4

BRD4 43-463 Y97A [2] = assay: competitive FP assay, BRD4 tandem construct Y97A; assay type: binding
[3] = target: T4, His-BRD4^BD2 + eGFP-FKBP12 (Homo sapiens, UniProt O60885+P62942); assay: HTRF ternary complex formation BRD4 BD2 + EGFP-FKBP12; assay type: binding; settings: eGFP-FKBP12 5 µM, His-BRD4^BD2 100 nM; read-out: HTRF BRD4^BD2 + GFP-FKBP12 Kd
T4 construct: the His6-tag of the respective BD1 or BD2 domain of BRD4 and EGFP-labeled FKBP12

BRD4^BD1 = target: T5, BRD4^BD1 (Homo sapiens, UniProt O60885); assay: competitive fluorescence polarization assay, BRD4 BD1 -/+ presenter protein; assay type: binding
T5 construct: to the isolated BD1 and BD2 domains of BRD2, BRD3 and BRD4

BRD4 43-463 Y390A [4] = target: BRD4 43-463 Y390A (Homo sapiens, UniProt O60885, Y390A); assay: competitive FP assay, BRD4 tandem construct Y390A; assay type: binding
BRD4 = target: T6, BRD4 (Homo sapiens, UniProt O60885); assay: NanoBRET BRD4, transient BRD4-NanoLuc in HEK293T cells; assay type: cell-based; settings: intact HEK293 cells
T6 construct: full-length BRD4 fused to NanoLuc at N terminus; expressed in transfected cells; host or cells: HEK293T
Protocol: The NanoBRET assay was performed as described previously[26],[39]. To study BRD4 engagement, we employed two models: cells stably expressing BRD4-NanoLuc and cells with transient BRD4-NanoLuc expression. For stable cell lines, the coding sequence of human BRD4 (Isoform B) was fused in-frame to NanoLuc luciferase under the control of the human ubiquitin C (UbC) promoter, with left and right homology arms targeting the AAVS1 locus in intron 1 of the PPP1R12C gene to facilitate genomic integration. PC3 prostate cancer cells were transfected with this construct and vectors expressing Cas9 and an sgRNA targeting the AAVS1 locus using Lipofectamine 3000 (Invitrogen). Successful integrands were selected with blasticidin. Expression of the fusion protein was confirmed by western blot. For transient experiments, full-length BRD4 fused to NanoLuc at N terminus, was cloned into an expression plasmid and transfected into HEK293T cells using FuGENE HD (Promega, E2312), with protein expression allowed for 20 h. Serially diluted inhibitors and BRD Tracer-02 (Promega, TracerDB ID: T000022) at the Tracer KD concentration (from TracerDB)[40] were dispensed into white 384-well plates (Greiner 781207) using an ECHO 550 acoustic dispenser (Labcyte). The cells were trypsinized, resuspended in Opti-MEM without phenol red (Life Technologies), and seeded at 2 × 10^5 cells/mL. After equilibration for 2 h at 37 °C/5% CO₂ following compound treatment, the NanoBRET® NanoGlo Substrate + Extracellular NanoLuc® Inhibitor (Promega, N2162) was added according to the manufacturer’s protocol, and filtered luminescence was measured on a PHERAstar plate reader (BMG Labtech) using a donor (450 nm BP) and acceptor (610 nm LP) filter pair. Competitive displacement data were analyzed using GraphPad Prism 9 with a normalized 3-parameter curve fit: Y = 100/(1 + 10^(X − log IC₅₀)). For BRET measurements after FKBP12 knockdown in stably expressing BRD4 Nano-Luc reporter cell line, 10 nL/per well of the FKBP12 PROTAC was pipetted to each well using Labcyte to achieve the final concentration of 200 nM and the plated cells were incubated over-night at 37 °C and 5% CO2. BRET measurements were performed as outlined above.

FKBP12 [5] = target: T7, FKBP12 (Homo sapiens, UniProt P62942); assay: competitive fluorescence polarization assay, binding to FKBP12; settings: competitive FP assay
BRD4 43-463 = BRD4 43-463 (Homo sapiens, UniProt O60885); assay: competitive FP assay, BRD4 tandem bromo domain construct; assay type: binding
FKBP12 [6] = target: T7, FKBP12; assay: NanoBRET FKBP12 in intact HEK293 cells; assay type: cell-based
BRD4 43-463 Y97A [7] = target: BRD4 43-463 Y97A (Homo sapiens, UniProt O60885, Y97A); assay: competitive FP assay, BRD4 tandem construct Y97A; assay type: binding
MV4-11 cells = assay: CellTiter-Glo cell viability, MV4-11; assay type: cell-based, human; settings: Homo sapiens, MV4-11, 120 h; five days, without FKBP12 PROTAC; read-out: Cell toxicity (MV4-11) - FKBP12 PROTAC IC50
[8] = target: T8, His-BRD4^BD1 + eGFP-FKBP12 (Homo sapiens, UniProt O60885+P62942); assay: HTRF ternary complex formation BRD4 BD1 + EGFP-FKBP12; assay type: binding; settings: eGFP-FKBP12 5 µM, His-BRD4^BD1 100 nM; read-out: HTRF BRD4^BD1 + GFP-FKBP12 Kd
T8 construct: the His6-tag of the respective BD1 or BD2 domain of BRD4 and EGFP-labeled FKBP12

BRD4^BD2 = target: T9, BRD4^BD2 (Homo sapiens, UniProt O60885); assay: competitive fluorescence polarization assay, BRD4 BD2 -/+ presenter protein; assay type: binding
T9 construct: to the isolated BD1 and BD2 domains of BRD2, BRD3 and BRD4

MYC mRNA = assay: quantitative RT-PCR of MYC mRNA, MV4-11; assay type: cell-based, human; settings: MV4-11
[9] = ratio of binding in absence or presence of FKBP12

T2 sequence (Q15059 306-415 limits assumed): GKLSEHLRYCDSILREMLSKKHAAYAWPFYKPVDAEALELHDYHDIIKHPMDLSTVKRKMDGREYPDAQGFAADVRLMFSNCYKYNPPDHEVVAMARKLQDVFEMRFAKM
T3 sequence (P25440 74-180 limits assumed): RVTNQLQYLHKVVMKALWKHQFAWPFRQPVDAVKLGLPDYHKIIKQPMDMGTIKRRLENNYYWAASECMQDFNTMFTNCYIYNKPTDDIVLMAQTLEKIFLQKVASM
Sequence of BRD2BD2 (P25440 344-453 limits assumed): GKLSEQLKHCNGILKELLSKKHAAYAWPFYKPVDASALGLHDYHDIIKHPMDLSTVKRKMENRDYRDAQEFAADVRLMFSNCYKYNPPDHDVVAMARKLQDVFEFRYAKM
T1 sequence (Q15059 34-140 limits assumed): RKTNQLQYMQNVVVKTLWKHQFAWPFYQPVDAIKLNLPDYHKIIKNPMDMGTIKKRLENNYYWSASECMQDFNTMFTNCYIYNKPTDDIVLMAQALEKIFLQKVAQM

Q: Which “α BRD2BD2” value (BRD2BD2) does the source give for `Cc1sc2c(c1C)C(c1ccc(Cl)cc1)=N[C@@H](CC(=O)OC(C)(C)C)c1nnc(C)n1-2` [JQ1, (+)-JQ1, reference compound] here?
A: 1.0

Q: And the “α BRD3BD1” value (BRD3BD1)?
A: 1.0

Q: And the “α BRD3BD2” value (BRD3BD2)?
A: 1.0

Q: And the “α BRD4 43-463 Y390A” value (BRD4 43-463 Y390A [1])?
A: 1.0

Q: And the “α BRD2BD1” value (BRD2BD1)?
A: 1.0

Q: What about the “α BRD4 43-463 Y97A” value (BRD4 43-463 Y97A [2]) of the same compound?
A: 1.2

Q: `Cc1sc2c(c1C)C(c1ccc(Cl)cc1)=NC(CC(=O)NCCOCCn1cc(COCC3CN(Cc4ccccn4)C(=O)C4CCCC3N4S(=O)(=O)c3cc(Cl)cc(Cl)c3)nn1)c1nnc(C)n1-2` (stereo not drawn) [a1d] was tested. Which Kd [3] did it give?
A: 0.026 ± 0.006 µM

Q: And the Kd (BRD4^BD1; 15 µM FKBP51FK1, read-out: Binding to BRD4BD1 + FKBP51FK1 Kd)?
A: 0.5 ± 0.09 µM

Q: And the Kd (BRD4^BD1; absence of FKBP12, 2 nM JQ1-FL tracer, read-out: Binding to BRD4^BD1 - FKBP12 Kd)?
A: 0.45 ± 0.07 µM

Q: What about the Kd (BRD4^BD1; absence of FKBP51FK1 (SI Table 3), read-out: Binding to BRD4BD1 - FKBP51FK1 Kd) of the same compound?
A: 0.3 ± 0.05 µM

Q: What about the Kd (BRD4^BD1; presence of 15 µM FKBP12, read-out: Binding to BRD4^BD1 + FKBP12 Kd (converted)) of the same compound?
A: 0.025 µM

Q: And the “α BRD4^BD1 (binding cooperativity factor)” value (BRD4^BD1; [9])?
A: 18

Q: And the Kd (BRD4^BD1; values quoted in rebuttal letter (earlier version of Tab. 1), read-out: binding to BRD4BD1 + FKBP12)?
A: 0.026 µM

Q: What about the “α BRD2BD2” value (BRD2BD2) of the same compound?
A: 2.5

Q: And the Kd (BRD2BD2; 15 µM FKBP12, read-out: Binding to BRD2BD2 + FKBP12 Kd)?
A: 0.075 ± 0.02 µM

Q: What about the Kd (BRD2BD2; absence of FKBP12, read-out: Binding to BRD2BD2 - FKBP12 Kd) of the same compound?
A: 0.19 ± 0.05 µM

Q: And the “α BRD3BD1” value (BRD3BD1)?
A: 7.4

Q: And the Kd (BRD3BD1; 15 µM FKBP12, read-out: Binding to BRD3BD1 + FKBP12 Kd)?
A: 0.023 ± 0.005 µM

Q: What about the Kd (BRD3BD1; absence of FKBP12, read-out: Binding to BRD3BD1 - FKBP12 Kd) of the same compound?
A: 0.17 ± 0.027 µM

Q: And the “α BRD3BD2” value (BRD3BD2)?
A: 1.0

Q: And the Kd (BRD3BD2; 15 µM FKBP12, read-out: Binding to BRD3BD2 + FKBP12 Kd)?
A: 0.14 ± 0.03 µM

Q: What about the Kd (BRD3BD2; absence of FKBP12, read-out: Binding to BRD3BD2 - FKBP12 Kd) of the same compound?
A: 0.15 ± 0.03 µM

Q: What about the Kd (BRD4 43-463 Y390A [4]; Binding to BRD4 43-463 Y390A + FKBP12 Kd, 15 µM FKBP12) of the same compound?
A: 0.018 ± 0.002 µM

Q: And the Kd (BRD4 43-463 Y390A [4]; absence of FKBP12)?
A: 0.183 ± 0.013 µM

Q: And the “α BRD4 43-463 Y390A” value (BRD4 43-463 Y390A [1])?
A: 10

Q: And the IC50 (BRD4)?
A: 0.82 µM

Q: And the Kd (FKBP12 [5])?
A: 0.001 µM

Q: What about the “α BRD2BD1” value (BRD2BD1) of the same compound?
A: 7.2

Q: And the Kd (BRD2BD1; 15 µM FKBP12, read-out: Binding to BRD2BD1 + FKBP12 Kd)?
A: 0.036 ± 0.009 µM

Q: What about the Kd (BRD2BD1; absence of FKBP12, read-out: Binding to BRD2BD1 - FKBP12 Kd) of the same compound?
A: 0.26 ± 0.06 µM

Q: And the “α BRD4 43-463” value (BRD4 43-463)?
A: 6.7

Q: What about the Kd (BRD4 43-463; Binding to BRD4 43-463 + FKBP12 Kd, 15 µM FKBP12) of the same compound?
A: 0.026 ± 0.003 µM

Q: What about the Kd (BRD4 43-463; Binding to BRD4 43-463 - FKBP12 Kd, absence of FKBP12) of the same compound?
A: 0.175 ± 0.017 µM

Q: And the IC50 (FKBP12 [6])?
A: 0.014 µM

Q: And the “α BRD4 43-463 Y97A” value (BRD4 43-463 Y97A [2])?
A: 2.2

Q: What about the Kd (BRD4 43-463 Y97A [7]; Binding to BRD4 43-463 Y97A + FKBP12 Kd, 15 µM FKBP12) of the same compound?
A: 0.059 ± 0.005 µM

Q: What about the Kd (BRD4 43-463 Y97A [7]; Binding to BRD4 43-463 Y97A - FKBP12 Kd, absence of FKBP12) of the same compound?
A: 0.13 ± 0.016 µM

Q: And the IC50 (MV4-11 cells)?
A: 0.0017 µM

Q: What about the Kd [8] of the same compound?
A: 0.009 ± 0.003 µM

Q: What about the Kd (BRD4^BD2; 15 µM FKBP51FK1, read-out: Binding to BRD4BD2 + FKBP51FK1 Kd) of the same compound?
A: 0.47 ± 0.08 µM

Q: And the Kd (BRD4^BD2; absence of FKBP12, 2 nM JQ1-FL tracer, read-out: Binding to BRD4^BD2 - FKBP12 Kd)?
A: 0.32 ± 0.05 µM

Q: What about the Kd (BRD4^BD2; absence of FKBP51FK1 (SI Table 3), read-out: Binding to BRD4BD2 - FKBP51FK1 Kd) of the same compound?
A: 0.18 ± 0.03 µM

Q: What about the Kd (BRD4^BD2; presence of 15 µM FKBP12, read-out: Binding to BRD4^BD2 + FKBP12 Kd (converted)) of the same compound?
A: 0.07 µM

Q: And the “α BRD4^BD2 (binding cooperativity factor)” value (BRD4^BD2; [9])?
A: 4.5

Q: `CCCCCCCC/C=C\CCCCCCCC(=O)ON1C(=O)CC(S(=O)(=O)O)C1=O` (stereo not drawn) [sulfosuccinimidyl oleate (SSO), sulfosuccinimidyl oleate, reference compound] was tested. Which “effect of CD36 inhibitor on myc repression upon a1dj treatment” value (MYC mRNA) did it give?
A: did not observe any effect
